{"source": "paper PMC10041525", "about": "“New Dual Inhibitors of Bacterial Topoisomerases with Broad-Spectrum Antibacterial Activity and In Vivo Efficacy against Vancomycin-Intermediate Staphylococcus aureus” (Journal of Medicinal Chemistry, 2023)", "system": "100 A. baumannii strains (50 MDR, 50 non-MDR)", "test": "MIC broth microdilution at IHMA Europe, panel of 100 strains", "type": "cell-based", "conditions": "Acinetobacter baumannii, read-out: MIC", "note": "Read-outs that look alike come from different tables or passages of the source."}
{"smiles": "CN(C)c1cc(NC(=O)CNC(C)(C)C)c(O)c2c1C[C@H]1C[C@H]3[C@H](N(C)C)C(O)=C(C(N)=O)C(=O)[C@@]3(O)C(O)=C1C2=O", "note": "[Tigecycline, tigecycline]", "values": [{"measurement": "MIC", "setting": "A. baumannii IHMA 1769393, Lithuania 2018, Non-MDR", "result": 0.25, "unit": "µg/mL"}, {"measurement": "MIC", "setting": "A. baumannii IHMA 1769782, Israel 2018, MDR", "result": 4, "unit": "µg/mL"}, {"measurement": "MIC", "setting": "A. baumannii IHMA 1769910, Israel 2018, Non-MDR", "result": 2, "unit": "µg/mL"}, {"measurement": "MIC", "setting": "A. baumannii IHMA 1790317, Czech Republic 2018, Non-MDR", "result": 0.06, "unit": "µg/mL"}, {"measurement": "MIC", "setting": "A. baumannii IHMA 1790916, Romania 2018, Non-MDR", "result": 0.12, "unit": "µg/mL"}, {"measurement": "MIC", "setting": "A. baumannii IHMA 1791877, Israel 2018, MDR", "result": 2, "unit": "µg/mL"}, {"measurement": "MIC", "setting": "A. baumannii IHMA 1792961, Jordan 2018, MDR", "result": 2, "unit": "µg/mL"}, {"measurement": "MIC", "setting": "A. baumannii IHMA 1795669, Tunisia 2018, Non-MDR", "result": 0.06, "unit": "µg/mL"}, {"measurement": "MIC", "setting": "A. baumannii IHMA 1814276, Lebanon 2018, MDR", "result": 4, "unit": "µg/mL"}, {"measurement": "MIC", "setting": "A. baumannii IHMA 1815198, Kuwait 2018, MDR", "result": 4, "unit": "µg/mL"}, {"measurement": "MIC", "setting": "A. baumannii IHMA 1815856, Israel 2018, MDR", "result": 2, "unit": "µg/mL"}, {"measurement": "MIC", "setting": "A. baumannii IHMA 1821468, South Africa 2018, Non-MDR", "result": 0.25, "unit": "µg/mL"}, {"measurement": "MIC", "setting": "A. baumannii IHMA 1829500, Georgia 2018, Non-MDR", "result": 0.5, "unit": "µg/mL"}, {"measurement": "MIC", "setting": "A. baumannii IHMA 1830924, United Kingdom 2018, Non-MDR", "result": 0.5, "unit": "µg/mL"}, {"measurement": "MIC", "setting": "A. baumannii IHMA 1849819, Kuwait 2018, MDR", "result": 4, "unit": "µg/mL"}, {"measurement": "MIC", "setting": "A. baumannii IHMA 1849829, Kuwait 2018, Non-MDR", "result": 0.25, "unit": "µg/mL"}, {"measurement": "MIC", "setting": "A. baumannii IHMA 1857118, Slovenia 2018, Non-MDR", "result": 0.25, "unit": "µg/mL"}, {"measurement": "MIC", "setting": "A. baumannii IHMA 1863631, France 2018, Non-MDR", "result": 0.25, "unit": "µg/mL"}, {"measurement": "MIC", "setting": "A. baumannii IHMA 1870054, United States 2018, Non-MDR", "result": 0.12, "unit": "µg/mL"}, {"measurement": "MIC", "setting": "A. baumannii IHMA 1884428, Italy 2018, Non-MDR", "result": 0.25, "unit": "µg/mL"}, {"measurement": "MIC", "setting": "A. baumannii IHMA 1884990, Germany 2018, Non-MDR", "result": 0.12, "unit": "µg/mL"}, {"measurement": "MIC", "setting": "A. baumannii IHMA 1900538, Turkey 2018, Non-MDR", "result": 0.25, "unit": "µg/mL"}, {"measurement": "MIC", "setting": "A. baumannii IHMA 1913773, Kenya 2018, Non-MDR", "result": 0.25, "unit": "µg/mL"}, {"measurement": "MIC", "setting": "A. baumannii IHMA 1926285, Qatar 2018, Non-MDR", "result": 0.12, "unit": "µg/mL"}, {"measurement": "MIC", "setting": "A. baumannii IHMA 1926288, Qatar 2018, MDR", "result": 4, "unit": "µg/mL"}, {"measurement": "MIC", "setting": "A. baumannii IHMA 1957343, Portugal 2019, Non-MDR", "result": 0.12, "unit": "µg/mL"}, {"measurement": "MIC", "setting": "A. baumannii IHMA 1963732, Turkey 2019, MDR", "result": 4, "unit": "µg/mL"}, {"measurement": "MIC", "setting": "A. baumannii IHMA 1967860, Spain 2019, Non-MDR", "result": 4, "unit": "µg/mL"}, {"measurement": "MIC", "setting": "A. baumannii IHMA 1971673, Latvia 2019, MDR", "result": 2, "unit": "µg/mL"}, {"measurement": "MIC", "setting": "A. baumannii IHMA 1975075, Israel 2019, Non-MDR", "result": 0.5, "unit": "µg/mL"}, {"measurement": "MIC", "setting": "A. baumannii IHMA 1977077, Kuwait 2019, Non-MDR", "result": 0.5, "unit": "µg/mL"}, {"measurement": "MIC", "setting": "A. baumannii IHMA 1983151, Greece 2019, MDR", "result": 2, "unit": "µg/mL"}, {"measurement": "MIC", "setting": "A. baumannii IHMA 1984665, Lithuania 2019, MDR", "result": 4, "unit": "µg/mL"}, {"measurement": "MIC", "setting": "A. baumannii IHMA 1986678, Turkey 2019, Non-MDR", "result": 0.5, "unit": "µg/mL"}, {"measurement": "MIC", "setting": "A. baumannii IHMA 1986738, Turkey 2019, MDR", "result": 4, "unit": "µg/mL"}, {"measurement": "MIC", "setting": "A. baumannii IHMA 1987162, Croatia 2019, MDR", "result": 2, "unit": "µg/mL"}, {"measurement": "MIC", "setting": "A. baumannii IHMA 1993615, Turkey 2019, MDR", "result": 0.5, "unit": "µg/mL"}, {"measurement": "MIC", "setting": "A. baumannii IHMA 1994284, Italy 2019, MDR", "result": 1, "unit": "µg/mL"}, {"measurement": "MIC", "setting": "A. baumannii IHMA 1995161, Czech Republic 2019, Non-MDR", "result": 0.12, "unit": "µg/mL"}, {"measurement": "MIC", "setting": "A. baumannii IHMA 1997936, Morocco 2019, Non-MDR", "result": 0.25, "unit": "µg/mL"}, {"measurement": "MIC", "setting": "A. baumannii IHMA 1999178, Belgium 2019, Non-MDR", "result": 0.25, "unit": "µg/mL"}, {"measurement": "MIC", "setting": "A. baumannii IHMA 2003279, Turkey 2019, MDR", "result": 2, "unit": "µg/mL"}, {"measurement": "MIC", "setting": "A. baumannii IHMA 2014367, Jordan 2019, Non-MDR", "result": 0.12, "unit": "µg/mL"}, {"measurement": "MIC", "setting": "A. baumannii IHMA 2014931, South Africa 2019, Non-MDR", "result": 0.25, "unit": "µg/mL"}, {"measurement": "MIC", "setting": "A. baumannii IHMA 2019315, Romania 2019, Non-MDR", "result": 0.12, "unit": "µg/mL"}, {"measurement": "MIC", "setting": "A. baumannii IHMA 2020360, Croatia 2019, MDR", "result": 4, "unit": "µg/mL"}, {"measurement": "MIC", "setting": "A. baumannii IHMA 2031511, Greece 2019, Non-MDR", "result": 0.12, "unit": "µg/mL"}, {"measurement": "MIC", "setting": "A. baumannii IHMA 2031524, Greece 2019, MDR", "result": 1, "unit": "µg/mL"}, {"measurement": "MIC", "setting": "A. baumannii IHMA 2034657, Tunisia 2019, Non-MDR", "result": 0.25, "unit": "µg/mL"}, {"measurement": "MIC", "setting": "A. baumannii IHMA 2035089, Serbia 2019, MDR", "result": 4, "unit": "µg/mL"}, {"measurement": "MIC", "setting": "A. baumannii IHMA 2035134, Serbia 2019, Non-MDR", "result": 0.12, "unit": "µg/mL"}, {"measurement": "MIC", "setting": "A. baumannii IHMA 2038976, Hungary 2019, MDR", "result": 2, "unit": "µg/mL"}, {"measurement": "MIC", "setting": "A. baumannii IHMA 2051503, Serbia 2019, MDR", "result": 2, "unit": "µg/mL"}, {"measurement": "MIC", "setting": "A. baumannii IHMA 2058329, Slovenia 2019, Non-MDR", "result": 0.25, "unit": "µg/mL"}, {"measurement": "MIC", "setting": "A. baumannii IHMA 2065587, France 2019, Non-MDR", "result": 0.25, "unit": "µg/mL"}, {"measurement": "MIC", "setting": "A. baumannii IHMA 2099294, United Kingdom 2019, Non-MDR", "result": 0.5, "unit": "µg/mL"}, {"measurement": "MIC", "setting": "A. baumannii IHMA 2129256, Qatar 2019, Non-MDR", "result": 0.12, "unit": "µg/mL"}, {"measurement": "MIC", "setting": "A. baumannii IHMA 2154584, Israel 2020, MDR", "result": 2, "unit": "µg/mL"}, {"measurement": "MIC", "setting": "A. baumannii IHMA 2155340, Kenya 2020, MDR", "result": 4, "unit": "µg/mL"}]}
